Reference: the supplement of paper PMC11061612

How the values were obtained:
Test in all cases: combination Emax (second highest fraction inhibited in the dose matrix, 72 h); higher = more inhibition; extreme values may be limits of the assay
[1] = test system: CCRF-CEM (T-Lymphoblastic Leukemia)
In short: (§1)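 After 24 hours at 37°C and 5% CO2 in 1536-well plates, cells in DMEM/F12 or RPMI plus 10% FBS received two-drug dose matrices for 72 hours. Viability came from CellTiter-Glo 2.0 luminescence and was scaled as inhibition, anchored at 0 by vehicle wells and at 1 by blank wells. Combination Emax is taken as the second-highest inhibition in the matrix, and Bliss excess as the observed combination effect less EA + EB − EA·EB, with EA and EB the single-agent effects.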

[2] = test system: CaR-1 (Colorectal Carcinoma)
In short: as §1

[3] = test system: DoTc2-4510 (Cervical Carcinoma)
In short: as §1

[4] = test system: HOS (Osteosarcoma)
In short: as §1

[5] = test system: KELLY (Neuroblastoma)
In short: as §1

[6] = test system: LB831-BLC (Bladder Carcinoma)
In short: as §1

[7] = test system: RO82-W-1 (Thyroid Gland Carcinoma)
In short: as §1

[8] = test system: TE-9 (Esophageal Squamous Cell Carcinoma)
In short: as §1

| Compound | combination Emax [1] | combination Emax [2] | combination Emax [3] | combination Emax [4] | combination Emax [5] | combination Emax [6] | combination Emax [7] | combination Emax [8] |
| --- | --- | --- | --- | --- | --- | --- | --- | --- |
| C=CCn1c(=O)c2cnc(Nc3ccc(N4CCN(C)CC4)cc3)nc2n1-c1cccc(C(C)(C)O)n1 [AZD1775] + CCc1c2c(nc3ccc(O)cc13)-c1cc3c(c(=O)n1C2)COC(=O)[C@]3(O)CC [SN-38] (first compound max 1 µM, partner max 0.3 µM) | 1 | 0.808 | 0.92 | 0.849 | 1 | 0.875 | 0.263 | 0.496 |
| C=CCn1c(=O)c2cnc(Nc3ccc(N4CCN(C)CC4)cc3)nc2n1-c1cccc(C(C)(C)O)n1 [AZD1775] + Nc1ccn([C@@H]2O[C@H](CO)[C@@H](O)C2(F)F)c(=O)n1 [Gemcitabine] (first compound max 1 µM, partner max 0.3 µM) | 1 | 0.729 | 0.729 | 0.596 | 1 | 0.872 | 0.194 | 0.502 |
| CN(CCO)CC[C@H](CSc1ccccc1)Nc1ccc(S(=O)(=O)NC(=O)c2ccc(N3CCC([C@@H](O)c4ccccc4-c4ccc(Cl)cc4)CC3)cc2)cc1S(=O)(=O)C(F)(F)F [AZD4320] + CC(=O)O[C@H]1C(=O)[C@@]2(C)[C@H]([C@H](OC(=O)c3ccccc3)[C@]3(O)C[C@H](OC(=O)[C@H](O)[C@@H](NC(=O)c4ccccc4)c4ccccc4)C(C)=C1C3(C)C)[C@]1(OC(C)=O)CO[C@@H]1C[C@@H]2O [Paclitaxel] (first compound max 1 µM, 7x7, partner max 3 µM) | 1 | 0.911 | 0.992 | 1 | 1 | 0.965 | 0.947 | 0.931 |
| CN(CCO)CC[C@H](CSc1ccccc1)Nc1ccc(S(=O)(=O)NC(=O)c2ccc(N3CCC([C@@H](O)c4ccccc4-c4ccc(Cl)cc4)CC3)cc2)cc1S(=O)(=O)C(F)(F)F [AZD4320] + CS(=O)(=O)CCNCc1ccc(-c2ccc3ncnc(Nc4ccc(OCc5cccc(F)c5)c(Cl)c4)c3c2)o1 [Lapatinib] (first compound max 1 µM, 7x7, partner max 10 µM) | 1 | 0.785 | 0.974 | 0.348 | 0.994 | 0.858 | 0.646 | 0.931 |
| CN(CCO)CC[C@H](CSc1ccccc1)Nc1ccc(S(=O)(=O)NC(=O)c2ccc(N3CCC([C@@H](O)c4ccccc4-c4ccc(Cl)cc4)CC3)cc2)cc1S(=O)(=O)C(F)(F)F [AZD4320] + Nc1ccn([C@@H]2O[C@H](CO)[C@@H](O)C2(F)F)c(=O)n1 [Gemcitabine] (first compound max 1 µM, 7x7, partner max 0.3 µM) | 1 | 0.708 | 0.882 | 0.829 | 0.999 | 0.881 | 0.572 | 0.518 |
| Cc1c2c(nn1C)CSCc1cc(n(C)n1)CSc1cc(c3ccccc3c1)OCCCc1c(C(=O)O)n(C)c3c-2c(Cl)ccc13 [AZD5991] + CC(=O)O[C@H]1C(=O)[C@@]2(C)[C@H]([C@H](OC(=O)c3ccccc3)[C@]3(O)C[C@H](OC(=O)[C@H](O)[C@@H](NC(=O)c4ccccc4)c4ccccc4)C(C)=C1C3(C)C)[C@]1(OC(C)=O)CO[C@@H]1C[C@@H]2O [Paclitaxel] (first compound max 1 µM, 7x7, partner max 3 µM) | 0.992 | 0.741 | 0.544 | 0.964 | 1 | 0.733 | 0.401 | 0.789 |
| Cc1c2c(nn1C)CSCc1cc(n(C)n1)CSc1cc(c3ccccc3c1)OCCCc1c(C(=O)O)n(C)c3c-2c(Cl)ccc13 [AZD5991] + CS(=O)(=O)CCNCc1ccc(-c2ccc3ncnc(Nc4ccc(OCc5cccc(F)c5)c(Cl)c4)c3c2)o1 [Lapatinib] (first compound max 1 µM, 7x7, partner max 10 µM) | 0.594 | 0.432 | 0.549 | 0.303 | 1 | 0.55 | 0.141 | 0.193 |
| Cc1c2c(nn1C)CSCc1cc(n(C)n1)CSc1cc(c3ccccc3c1)OCCCc1c(C(=O)O)n(C)c3c-2c(Cl)ccc13 [AZD5991] + Nc1ccn([C@@H]2O[C@H](CO)[C@@H](O)C2(F)F)c(=O)n1 [Gemcitabine] (first compound max 1 µM, 7x7, partner max 0.3 µM) | 0.987 | 0.629 | 0.544 | 0.823 | 1 | 0.677 | 0.0885 | 0.343 |
| C[C@@H]1COCCN1c1cc(C2([S@](C)(=N)=O)CC2)nc(-c2ccnc3[nH]ccc23)n1 [AZD6738] + C1CC(C1)(C(=O)[O-])C(=O)[O-].N.N.[Pt+2] [Carboplatin] (first compound max 10 µM, 7x7, partner max 10 µM) | 0.977 | 0.385 | 0.492 | 0.668 | 0.944 | 0.39 | 0.151 | 0.264 |
| Cc1cc2ncnn2cc1Nc1ncc2c(n1)n(C1CCOCC1)c(=O)n2C [AZD7648] + COc1cc([C@@H]2c3cc4c(cc3[C@@H](O[C@@H]3O[C@@H]5CO[C@@H](C)O[C@H]5[C@H](O)[C@H]3O)[C@H]3COC(=O)[C@H]23)OCO4)cc(OC)c1O [Etoposide] (first compound max 10 µM, 7x7, partner max 10 µM) | 1 | 0.661 | 0.721 | 0.879 | 0.793 | 0.836 | 0.288 | 0.287 |
| C[C@@H](Nc1cc(F)cc(F)c1)c1cc(C(=O)N(C)C)cc2c(=O)cc(N3CCOCC3)oc12 [AZD8186] + C1CN(CCC1(C(=O)N[C@@H](CCO)C2=CC=C(C=C2)Cl)N)C3=NC=NC4=C3C=CN4 [AZD5363] (first compound max 10 µM, 7x7, partner max 10 µM) | 0.411 | 0.394 | 0.286 | 0.336 | 0.115 | 0.442 | 0.201 | 0.198 |
| C[C@@H](Nc1cc(F)cc(F)c1)c1cc(C(=O)N(C)C)cc2c(=O)cc(N3CCOCC3)oc12 [AZD8186] + CC(=O)c1c(C)c2cnc(Nc3ccc(N4CCNCC4)cn3)nc2n(C2CCCC2)c1=O [Palbociclib] (first compound max 10 µM, 7x7, partner max 10 µM) | 0.622 | 0.471 | 0.297 | 0.336 | 0.434 | 0.398 | 0.27 | 0.109 |
| C[C@@H](Oc1cc(-c2cnn(C3CCNCC3)c2)cnc1N)c1c(Cl)ccc(F)c1Cl [Crizotinib] + CC1=C(C(=CC=C1)Cl)NC(=O)C2=CN=C(S2)NC3=CC(=NC(=N3)C)N4CCN(CC4)CCO [Dasatinib] (first compound max 10 µM, 7x7, partner max 2 µM) | 0.911 | 0.943 | 0.897 | 0.756 | 0.991 | 0.921 | 0.618 | 0.691 |
| C[C@@H](Oc1cc(-c2cnn(C3CCNCC3)c2)cnc1N)c1c(Cl)ccc(F)c1Cl [Crizotinib] + Cn1cnc2c(F)c(Nc3ccc(Br)cc3Cl)c(C(=O)NOCCO)cc21 [Selumetinib] (first compound max 10 µM, 7x7, partner max 10 µM) | 0.854 | 0.491 | 0.292 | 0.457 | 0.98 | 0.55 | 0.197 | 0.167 |
| CS(=O)(=O)CCNCc1ccc(-c2ccc3ncnc(Nc4ccc(OCc5cccc(F)c5)c(Cl)c4)c3c2)o1 [Lapatinib] + Cn1cnc2c(F)c(Nc3ccc(Br)cc3Cl)c(C(=O)NOCCO)cc21 [Selumetinib] (first compound max 10 µM, 7x7, partner max 10 µM) | 0.46 | 0.426 | 0.597 | 0.332 | 0.936 | 0.379 | 0.193 | 0.149 |
| O=C(c1cc(Cc2n[nH]c(=O)c3ccccc23)ccc1F)N1CCN(C(=O)C2CC2)CC1 [Olaparib] + CC1(C)CCC(CN2CCN(c3ccc(C(=O)NS(=O)(=O)c4ccc(NCC5CCOCC5)c([N+](=O)[O-])c4)c(Oc4cnc5[nH]ccc5c4)c3)CC2)=C(c2ccc(Cl)cc2)C1 [Venetoclax] (first compound max 10 µM, 7x7, partner max 1 µM) | 0.209 | 0.0709 | 0.259 | 0.22 | 0.632 | 0.247 | 0.129 | 0.171 |
| O=C(c1cc(Cc2n[nH]c(=O)c3ccccc23)ccc1F)N1CCN(C(=O)C2CC2)CC1 [Olaparib] + CN(CC[C@H](CSC1=CC=CC=C1)NC2=C(C=C(C=C2)S(=O)(=O)NC(=O)C3=CC=C(C=C3)N4CCC(CC4)[C@H](C5=CC=CC=C5C6=CC=C(C=C6)Cl)O)S(=O)(=O)C(F)(F)F)CCO [AZD4320] (first compound max 10 µM, 7x7, partner max 1 µM) | 0.986 | 0.136 | 0.668 | 0.277 | 0.831 | 0.409 | 0.546 | 0.321 |
| O=C(c1cc(Cc2n[nH]c(=O)c3ccccc23)ccc1F)N1CCN(C(=O)C2CC2)CC1 [Olaparib] + COc1nnc2ccc(N3CCC(c4ccc(OCCN5CCN(C)C(=O)[C@H]5C)cc4)CC3)nn12 [AZD5153] (first compound max 10 µM, 7x7, partner max 1 µM) | 0.714 | 0.277 | 0.263 | 0.402 | 0.397 | 0.465 | 0.274 | 0.189 |
| O=C(c1cc(Cc2n[nH]c(=O)c3ccccc23)ccc1F)N1CCN(C(=O)C2CC2)CC1 [Olaparib] + Cc1c2c(nn1C)CSCc1cc(n(C)n1)CSc1cc(c3ccccc3c1)OCCCc1c(C(=O)O)n(C)c3c-2c(Cl)ccc13 [AZD5991] (first compound max 10 µM, 7x7, partner max 1 µM) | 0.271 | 0.13 | 0.224 | 0.254 | 0.934 | 0.136 | 0.147 | 0.202 |
| N#Cc1cnc(Nc2cc(NC[C@H]3CNCCO3)c(C(F)(F)F)cn2)cn1 [SRA737] + C=CCn1c(=O)c2cnc(Nc3ccc(N4CCN(C)CC4)cc3)nc2n1-c1cccc(C(C)(C)O)n1 [AZD1775] (first compound max 10 µM, partner max 1 µM) | 0.995 | 0.408 | 0.725 | 0.811 | 1 | 0.721 | 0.116 | 0.7 |
